Data reported in US4879303A, “Pharmaceutically acceptable salts” (priority 1986, dated 1989).
Where a name gives a salt, the structure may show the parent alone. Read-outs that look alike come from different tables or passages of the source.

Legend:
[1] = Aqueous solubility of amlodipine salts and pH at saturation; format: physicochemical; conditions: for solubility (in words): qualitative statement
Source text: Although amlodipine is effective as the free base, in practice it is best administered in the form of a salt of a pharmaceutically acceptable acid.
1. Generally, it is known in the art that a good aqueous solubility is necessary for good bioavailability. […] In addition, salts which provide solutions having a pH close to that of blood (7.4) are preferred because they are readily biocompatible and can easily be buffered to the required pH range without altering their solubility.

[2] = Chemical stability of salts blended in powder vehicle (tablets or capsules), breakdown products by tlc, ranked
Procedure: In order to screen for chemical stability, each of the salts was blended in a powder vehicle and formed into tablets or capsules. In the case of tablets the vehicle comprised microcrystalline cellulose in 50:50 combination with anhydrous dibasic calcium phosphate. In the case of capsules the vehicles comprised mannitol in 4:1 combination with dried maize starch. These were then stored in sealed vials at 50° and 75° C. for up to three weeks. The drug and any breakdown products were extracted with methanol:chloroform (50:50) and separated on silica tlc plates using a variety of solvent systems.
The results were compared and the salts ranked according to the number and amount of breakdown product produced.

[3] = Hygroscopicity: moisture pick-up on exposure to relative humidity; format: physicochemical; conditions: for moisture pick-up: 75% relative humidity, 37° C., 24 hours; for hydration state after exposure: 95% relative humidity, 30° C., 3 days
Source text: 3. In order to provide stable formulations it is desirable to have a non-hygroscopic salt. In the solid state where drug content is high, absorbed films of moisture can act as a vector for hydrolysis and chemical breakdown. It is the hygroscopic nature of a drug or its salt which contributes to the free moisture which is normally responsible for instability.
Therefore the besylate salt can be considered to be non-hygroscopic and thus provides stale formulations while minimising the risk of intrinsic chemical breakdown.

[4] = Stickiness: amlodipine sticking to tablet punch (processability); format: physicochemical; conditions: for processability / anti-adhesion properties (in words): qualitative statement; for Stickiness: runs of 50 to 300 tablets, calcium sulphate dihydrate/microcrystalline cellulose/salt 47.5:47.5:5, average from slope
Source text: 4. The final characteristic of an acceptable salt to be considered is the processability, i.e. the compression properties and also the ability not to stick or adhere to the tablet making machinery. For high dose formulations, good compressibility is very important to make elegant tablets. With lower dose tablets the need for good compressibility can be eliminated to a certain extent by the use of suitable diluting excipients called compression aids. Microcrystalline cellulose is a commonly used compression aid. However whatever the dose the adhesion of the drug to the punches of the tablet machine must be avoided. When drug accumulates on the punch surfaces this causes the tablet surface to become pitted and therefore unacceptable. […] In practice it is possible to reduce sticking by wet-massing, careful selection of excipients and the use of high levels of anti-adherents, e.g. magnesium stearate. […] This procedure was then repeated for runs of 100, 150, 200, 250 and 300 tables. After each run the amount of material sticking to the tablet punch was measured after extraction with methanol. The values are plotted and an average value calculated from the slope of the line produced. This same procedure was then repeated for each of the salts of amlodipine.

[5] = format: physicochemical
Source text: Consequently a range of pharmaceutically acceptable salts of amlodipine has been made and evaluated using these criteria: […]

[6] = Hydration / composition after isolation of the salt; format: physicochemical; conditions: after manufacture
[7] = listed as besylate salt of amlodipine
[8] = listed as Benzene sulphonate (besylate)
[9] = listed as Toluene sulphonate (tosylate)

SMILES	solubility [1]	pH at saturation [1]	Stability (rank order) [2]	moisture pick-up [3]	hydration state after exposure [3]	Stickiness relative to maleate [4]	Stickiness [4]	further results
CCOC(=O)C1=C(COCCN)NC(C)=C(C(=O)OC)C1c1ccccc1Cl (stereo not drawn) [Acetate]	50 mg/mL	6.6	.dwnarw.					
CCOC(=O)C1=C(COCCN)NC(C)=C(C(=O)OC)C1c1ccccc1Cl (stereo not drawn) [Besylate, amlodipine benzenesulphonate]			most stable	do not pick up any moisture	remain anhydrous	59%	1.17 g Amlodipine cm^-2 tablet^-1	hygroscopicity (overall conclusion) [3]: non-hygroscopic; hygroscopicity (overall conclusion) [3, 7]: non-hygroscopicity; pH at saturation [1, 8]: 6.6; solubility [1, 8]: 4.6 mg/mL; solubility (in words) [1, 7]: good solubility characteristics; processability / anti-adhesion properties (in words) [4]: superior anti-adhesion properties to the maleate; processability / anti-adhesion properties (in words) [4, 7]: good processability; stability (overall conclusion) [2]: good stability
CCOC(=O)C1=C(COCCN)NC(C)=C(C(=O)OC)C1c1ccccc1Cl (stereo not drawn) [Free base, 3-ethyl 5-methyl 2-(2-aminoethoxymethyl)-4-(2-chlorophenyl)-1,4-dihydro-6-methylpyridine-3,5-dicarboxylate]						102%	2.02 g Amlodipine cm^-2 tablet^-1	
CCOC(=O)C1=C(COCCN)NC(C)=C(C(=O)OC)C1c1ccccc1Cl (stereo not drawn) [Hydrochloride]	50 mg/mL	3.5				127%	2.51 g Amlodipine cm^-2 tablet^-1	
CCOC(=O)C1=C(COCCN)NC(C)=C(C(=O)OC)C1c1ccccc1Cl (stereo not drawn) [Maleate]	4.5 mg/mL	4.8	.dwnarw.	do not pick up any moisture	remain anhydrous	100%	1.98 g Amlodipine cm^-2 tablet^-1	solubility (in words) [1]: excellent solubility; stability in solution [5]: tends to break-down in solution after a few weeks
CCOC(=O)C1=C(COCCN)NC(C)=C(C(=O)OC)C1c1ccccc1Cl (stereo not drawn) [Mesylate]			.dwnarw.			58%	1.16 g Amlodipine cm^-2 tablet^-1	hydration after isolation as the anhydride [6]: equilibrates to the monohydrate; pH at saturation ([1]; listed as Methane sulphonate (mesylate)): 3.1; processability / anti-adhesion properties (in words) [4]: good processability
CCOC(=O)C1=C(COCCN)NC(C)=C(C(=O)OC)C1c1ccccc1Cl (stereo not drawn) [Salicylate]	1.0 mg/mL							Stability (rank order) ([2]; powder vehicle tablets or capsules, sealed vials, 50° and 75° C., up to three weeks, ranked by number and amount of breakdown product, listed from most stable to unstable): .dwnarw.
CCOC(=O)C1=C(COCCN)NC(C)=C(C(=O)OC)C1c1ccccc1Cl (stereo not drawn) [Succinate]	4.4 mg/mL	4.9	.dwnarw.			121%	2.39 g Amlodipine cm^-2 tablet^-1	
CCOC(=O)C1=C(COCCN)NC(C)=C(C(=O)OC)C1c1ccccc1Cl (stereo not drawn) [Tosylate]			.dwnarw.	do not pick up any moisture	formed the dihydrate salt	98%	1.95 g Amlodipine cm^-2 tablet^-1	pH at saturation [1, 9]: 5.9; solubility [1, 9]: 0.9 mg/mL
